Measured values: patent US9555057B2, “Compositions and methods for reducing cutaneous microbiome malodor” (The Research Foundation for The State University of New York, priority 2014, dated 2017)
“Also recorded” adds a separate entry of the source.

Experiments:
[1] = system: Staph. epidermidis (ATCC 12228); experiment: Kirby-Bauer disk diffusion susceptibility test; assay type: cell-based, Staphylococcus epidermidis
Text: (§1) C. striatum and Staph. epidermidis are among the most prevalent bacteria that comprise the human cutaneous microbiota. […] The purpose of this segment was to examine whether formulations arising out of the studies reported in the prior sections that favor the growth and metabolism of Staph. epidermidis as a desirable skin entity that can inhibit the growth of C. striatum, a less desirable entity, and do so when both microorganisms are present initially at the same levels. In this regard, an adaptation of the Kirby-Bauer disk diffusion susceptibility test appeared to be relevant for such determination.
(§2) Here we have grown less than desirable C. striatum and highly desirable Staph. epidermidis, alone and in combination, under a variety of substrate conditions to determine, if the latter micro-organism could be selected over C. striatum and thereby be used as a means of reducing the presence of less desirable odor-producing C. striatum.
(§3) Compositions indicated as possible suppressants of C. striatum and/or enhancers of Staph. epidermidis were based on the prior studies above and for convenience of presentation were categorized as possible active test ingredients and then formulae and mixtures in which they were tested. Accordingly, the total number of compositions tested was eight. Careful attention was paid to sterility throughout in the preparation and handling of the compounds and compositions utilized herein.
(§4) Each of these formulae were prepared at 4 different concentrations: original as in (b), and 1.5, 2.5 and 7.5 times the original concentration. Again, all formulae were prepared under aseptic conditions.
To make compositions 1.5 times the original concentration listed above, formulae 7.5 times the original concentrations were diluted a factor of 5 with sterile distilled water. […]
Each strain was determined as resistant, intermediate, or susceptible to the ingredients, formulae and mixtures tested. After 24 hours of incubation at 37° C., the diameter of the zone of growth inhibition around each disk was measured to the nearest whole mm. […]

[2] = system: C. striatum, Staph. epidermidis and a mixture of the two; experiment: Growth (colony counts on BHI agar) during 72 hour incubation with CIL, phenylalanine, zinc carbonate with or without arginine bicarbonate; assay type: cell-based
Method: The bacterial sediments produced upon centrifugation and decantation of the supernatants were stirred and made into a uniform suspension. C. striatum and Staph. epidermidis were mixed with each of C. striatum and Staph. epidermidis at 25% (v/v).
Zinc carbonate was autoclaved and suspended in sterile distilled water. All other stock solutions were sterilized by microbial filtration (Nylon, Sterile filter, pore size […], Fisher Scientific, Fairlawn, N.J. USA).
Difco BHI agar was poured into petri dish plates under sterile conditions and pre-incubated at 37° C. for 24 hours before use to ensure sterility.
The experimental and negative control samples were prepared as follows:
The final concentrations of the bacteria, C. striatum and Staph. epidermidis were each 8.3% (v/v) and the mixture of C. striatum and Staph. epidermidis were 4.15% (v/v) each.
Serial dilution of each of the samples between 10^0 and 10^10 was made. An aliquot of 100 μl from each 10^0 to 10^10 dilution was inoculated onto BHI agar plates. […] Bacterial growth was regularly checked. This was the initial test before the incubation was started.
Four successive diluted samples were selected and grown to proper densities of bacterial colonies on the agar plates; for example, 10^4 to 10^7 were appropriate dilutions for all samples in the instant experiment. Incubation of all samples (experimental and control) were continued at 37° C. for 24, 48 or 72 hours; 100 μl of each sample were taken and chosen at 4 consequent dilutions and inoculated on BHI agar plates for incubation for 24, 48 and 72 hours, respectively. Plating on BHI agar plates and incubation at 37° C. for 24 to 48 hours were carried out and bacterial growth on the BHI agar plates were checked.
The number of bacterial colonies on each plate was assessed. The plates inoculated with the mixture of C. striatum and Staph. epidermidis (i.e., Samples I and IV in the Table of Media compositions above) were counted and the number of colonies of C. striatum and Staph. epidermidis were determined from the photos of the plates.

[3] = system: C. striatum, Staph. epidermidis or a 1:1 mixture thereof; settings: for Sulfurous odor and Eh: zinc acetate, CIL and either arginine or arginine bicarbonate, no phenylalanine
Text: The pH of the medium with each of the different zinc salts needed some adjustment, which was done with 1 M HCl or 1 M NaOH depending upon the pH of the stock solutions of each zinc salt employed.

[4] = system: mixture of C. striatum and Staph. epidermidis in the ratio of 1 to 1; experiment: Zinc carbonate / arginine bicarbonate on odor and pH, CIL and phenylalanine medium; assay type: cell-based; settings: for pH after incubation: arginine bicarbonate with zinc carbonate
[5] = system: C. striatum (ATCC 43751); experiment: Kirby-Bauer disk diffusion susceptibility test; assay type: cell-based, Corynebacterium striatum; settings: for Intensity of inhibition of the growth of C. striatum (CS): Blood BHI agar plate, 37° C., 24 hours
Text: as §1, §2, §3, §4
To make compositions 1.5 times the original concentration listed above, formulae 7.5 times the original concentrations were diluted a factor of 5 with sterile distilled water. To make compositions 2.5 times the original concentration listed above, formulae 7.5 times the original concentrations were diluted three-fold with sterile distilled water. To summarize: a total of 3 ingredients, 2 formulae and 2 mixtures were tested. A total of 20 disks were prepared for tests of susceptibility to each bacterial sample and these are outlined in Table 5.2 below:
A TB syringe with a 25-27 G sterile needle was used to help break up the remains of any pellets. […] Plating Procedures • Five bacterial samples of C. striatum and Staph. epidermidis were plated on Blood BHI agar and CHROMagar plates, respectively. • 100 μl of each bacterial sample was inoculated on Blood BHI agar plates by using sterile glass bars and a turning table to facilitate each bacterial sample being spread evenly on each of the agar plates. • Each spread bacterial suspension was allowed to dry on inoculated plates for five minutes. • Paper disks were immersed, respectively, with the above 3 ingredients, 2 formulae and 2 mixtures; absorptions were saturated. • Four disks were placed on each plate with sterile forceps. • Incubated plates within 15 minutes after applying the disks to ensure test was under standardized conditions, where diffusion of the ingredients and formulae and bacterial growth commence at approximately the same time. Plates were incubated at 37° C. for 24 hours. Interpretation of Results
Each strain was determined as resistant, intermediate, or susceptible to the ingredients, formulae and mixtures tested. After 24 hours of incubation at 37° C., the diameter of the zone of growth inhibition around each disk was measured to the nearest whole mm. Plates were carefully examined for well-developed colonies within the zone of inhibition.

[6] = system: pure cultures of microorganisms resident on human axillary skin; settings: for Odor released on catabolism: bacteria that catabolized the substrate
Method: Pure cultures of the numerically most prominent microorganisms normally resident on human axillary skin (see Table 1) were surveyed for their effects on (i) pH, (ii) Eh, (iii) ability to generate malodor and (iv) ability to generate hydrogen peroxide. Four hour incubation experiments were conducted, in which each of a wide range of carbohydrate and amino acid substrates (see Table 1) were surveyed for malodor production and related changes in pH and Eh thereto.
Each microorganism was recovered from its frozen state at −70° C. and grown at 37° C. in 10 ml of appropriate and respective culture media for a period between 24 and 48 hours (see Table 1). Incubations were carried out to middle and late exponential stages of bacterial growth under the incubation conditions indicated in Table 1. A 1.5 ml inoculum was transferred therefrom to polypropylene bottles containing 150 ml of the initial growth medium. This was then incubated at 37° C. for 24 to 48 hours. Bacteria were harvested by centrifugation (DuPone, Sorvall, Newtown, Conn.) at 10,000 g and 4° C. for 20 min. […] The sediment was then washed with sterile distilled water to remove residual growth medium. This was done by centrifuging the bacterial sediment three times at 1,740 g for 15 min at 4° C.
Each pure culture was pre-incubated at 37° C. at pH 7.0 to exhaust or reduce any stored carbohydrate and other carbon/energy sources acquired during growth in culture.
Both of these electrodes were connected to a second pH meter (pH M26 Radiometer Copenhagen NV, Denmark) and used here as a millivoltmeter. For the Eh measurements, when the Eh electrode was immersed in an incubation mixture, each Eh reading was recorded after allowing several seconds for each reading to stabilize. The Eh value was related to that of the hydrogen electrode by adding to each reading the difference between the E0 value for the Red Rod reference element-mercury and hydrogen electrodes—i.e. 270 my at 25° C.
At each time point, the odor was determined organoleptically by immersing a solid glass rod into each incubation mixture, stirring gently 3 times and then removing and carefully smelling the rod after 5 seconds. The intensity of the odor was assessed on a 0 to 4 numerical scale (0—no odor, 1—mild odor, 2—moderate odor, 3—strong odor, and 4—very strong odor).

[7] = zinc compound alone, levels tested (1%, 3%, 5%)
[8] = 3% and 5%, Blood BHI agar plates
[9] = concentration 5%, paper disk 12.7 mm

N=C(N)NCCC[C@H](N)C(=O)O.O=C(O)O [Arginine bicarbonate, arginine bicarbonate]
Sensitivity of Staph. epidermidis (in words) ([1]; at either 1% or 5%): neither C. striatum nor Staph. epidermidis was susceptible | Decrease of number of colonies ([2]; 12 mM zinc carbonate, CIL, phenylalanine, with versus without 12 mM arginine bicarbonate, 37° C., 72 hours): without arginine bicarbonate decreased sooner | Colonies found in the mixture ([2]; media with arginine bicarbonate, 48 and 72 hours): Only colonies of Staph. epidermidis were discovered | Staph. epidermidis share of colonies in the mixture ([2]; media with arginine bicarbonate, 24 hours, 65% at 0 hours): 90% | Sulfurous odor and Eh ([3]; pH 4.0 to 8.0, 4 hours): No sulfurous odor nor corresponding decrease in the Eh | pH maintained ([4]; 12.0 mM arginine bicarbonate, CIL and phenylalanine, 37° C., 4 hours): about 8.0 | pH after incubation ([4]; medium originally at pH 6.0): 6.8 | pH after incubation ([4]; medium originally at pH 7.0): 7.8 | pH after incubation ([4]; medium originally at pH 8.0): 8.0 | Sensitivity of C. striatum (in words) ([5]; at either 1% or 5% levels): neither C. striatum nor Staph. epidermidis was susceptible

CC(=O)[O-].CC(=O)[O-].[Zn+2] [Zinc acetate]
Sulfurous odor and Eh ([3]; pH 4.0 to 8.0, 4 hours): No sulfurous odor nor corresponding decrease in the Eh

NCC(=O)[O-].NCC(=O)[O-].[Zn+2] [Zinc glycinate, zinc glycinate]
Sensitivity of Staph. epidermidis (in words) [1, 7]: not sensitive | Sensitivity of C. striatum (in words) ([5]; 1%, Blood BHI agar): not sensitive | Sensitivity of C. striatum (in words) [5, 8]: viability loss; also recorded: sensitive | Diameter of the zone of growth inhibition, C. striatum ([5]; concentration 3%): 14 mm | Partial or complete inhibition, C. striatum ([5]; concentration 3%): (p) | Intensity of inhibition of the growth of C. striatum (CS) ([5]; concentration 3%): + ((+) the diameter of inhibition <15 mm) | Partial or complete inhibition, C. striatum ([5]; concentration 5%): (p) | Intensity of inhibition of the growth of C. striatum (CS) ([5]; concentration 5%): ++ ((++) the diameter of inhibition 15-20 mm) | Diameter of the zone of growth inhibition, C. striatum [5, 9]: 17 mm

N[C@@H](CS)C(=O)O [cysteine]
Odor released on catabolism ([6]; 6.0 mM): sulfurous odor

N[C@@H](CSSC[C@H](N)C(=O)O)C(=O)O [cystine]
Odor released on catabolism ([6]; 6.0 mM): sulfurous odor

CC(C)C[C@H](N)C(=O)O [leucine]
Foot-web odor score ([6]; 6.0 mM, Staph. saprophyticus, Staph. hominis, Staph. haemolyticus and C. minutissium, 0 to 4 scale): 2

CSCC[C@H](N)C(=O)O [methionine]
Methyl mercaptan-like odor level ([6]; 6.0 mM, Staph. epidermidis, Staph. saprophyticus, C. jeikeium, C. minutissium, Brevibacterium epidermidis, P. avidum, P. acne, M. furfur): mild to moderate

N[C@@H](Cc1ccccc1)C(=O)O [phenylalanine]
Pleasant odor ([4]; medium with zinc carbonate, CIL and phenylalanine, between pH 5.0 and 8.0, 4 hours): pleasant odor developed | Pleasant odor ([4]; phenylalanine added to zinc acetate, CIL, arginine or arginine bicarbonate media, pH 6.5 and 7.0, 4 hour): pleasant odor appeared | Odor produced on catabolism (in words) ([6]; 6.0 mM, C. striatum, Staph. saprophyticus or Staph. hominis): pleasant odor

OC[C@H]1O[C@@](CO)(O[C@H]2O[C@H](CO)[C@@H](O)[C@H](O)[C@H]2O)[C@@H](O)[C@@H]1O [sucrose]
pH response, lowest pH reached ([6]; 28 mM carbohydrate, start pH 7.0, 37° C., 4 hours, across the bacteria tested): 4.2

N[C@@H](Cc1c[nH]c2ccccc12)C(=O)O [tryptophan]
Indole/skatole odor level ([6]; 6.0 mM, M. luteus and P. acne, 0 to 4 scale): 2

Zinc arginate
Foot odor smell ([3]; 12 mM zinc arginate, CIL and phenylalanine, pH 4.0 or 5.0, 4 hours): mild | Eh ([3]; 12 mM zinc arginate, CIL and phenylalanine, pH 4.0 to 8.0, 4 hours): decreased significantly | Sulfurous odor ([3]; 12 mM zinc arginate, CIL and phenylalanine, pH 4.0 to 8.0, 4 hours, versus control groups): blocked completely | Foot odor generation ([3]; 12 mM zinc arginate, CIL and phenylalanine, pH 6.0 or above): disappeared | Favorable odor ([3]; C. striatum or the mixture, zinc arginate, CIL and phenylalanine, pH 5.0 to 8.0, 4 hours): evident | Pleasant flower odor ([3]; Staph. epidermidis alone, zinc arginate, CIL and phenylalanine, 4 hours): not detected

basic zinc carbonate (ZnCO3. 3 Zn(OH)2)
Sensitivity of Staph. epidermidis (in words) [1, 7]: not sensitive | Sulfurous odor ([4]; medium with zinc carbonate, CIL and phenylalanine, pH 4.0 to 8.0, 4 hours): no sulfurous odor was observed | Sensitivity of C. striatum (in words) ([5]; 1%, Blood BHI agar): not sensitive | Sensitivity of C. striatum (in words) [5, 8]: viability loss; also recorded: sensitive | Partial or complete inhibition, C. striatum ([5]; concentration 1%): (p) | Intensity of inhibition of the growth of C. striatum (CS) ([5]; concentration 1%): ± | Diameter of the zone of growth inhibition, C. striatum ([5]; concentration 3%): 14 mm | Partial or complete inhibition, C. striatum ([5]; concentration 3%): (p) | Intensity of inhibition of the growth of C. striatum (CS) ([5]; concentration 3%): + ((+) the diameter of inhibition <15 mm) | Partial or complete inhibition, C. striatum ([5]; concentration 5%): (p) | Intensity of inhibition of the growth of C. striatum (CS) ([5]; concentration 5%): ++ ((++) the diameter of inhibition 15-20 mm) | Diameter of the zone of growth inhibition, C. striatum [5, 9]: 15 mm
